Laboratory results: PubChem BioAssay AID1845198 (Molecular Pharmacology Branch, DTP, NCI, 2023)
pIC50: −log10 of the molar value.

System: 425362-245-T-J1 tumor spheroids, viability % test/control
Experiment: Anticancer human tumor 425362-245-T-J1 patient-derived melanoma cell line growth inhibition
Settings: spheroids with HUVEC and MSC; for pIC50: curve of first compound; for viability, T/C: stronger effect = lower value; active = viability on the fitted dose curve at most 10% of control; inactive = the rest
Method in brief: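 Complex tumor spheroids combined malignant cells with endothelial cells and mesenchymal stem cells. DNA-damaging drugs and DNA repair inhibitors were tested alone and in combination, at half-log dilutions down from clinical Cmax (top 10 microM if Cmax unknown), 0.25% DMSO final.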
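Also: spheroids exposed to agents for 7 days.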
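For viability, T/C in this document: 100% = DMSO vehicle control viability.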

[2H]c1nc(C)nc([2H])c1-c1cc(NC[C@@H](C)c2cccc3c(C(=O)NC)ccnc23)ncn1 + CC[C@@]1(O)C(=O)OCc2c1cc1n(c2=O)Cc2cc3c(CN(C)C)c(O)ccc3nc2-1
5.46: pIC50 (second compound 0.003 µM)
> 7.50: pIC50 (second compound 0.03 µM) | pIC50 (second compound 0.0949 µM) | pIC50 (second compound 0.3 µM)
active: viability, T/C (second compound 0.0949 µM, first compound 0.0316 µM) 6.85% | viability, T/C (second compound 0.0949 µM, first compound 0.1 µM) 5.79% | viability, T/C (second compound 0.0949 µM, first compound 0.316 µM) 4.9% | viability, T/C (second compound 0.0949 µM, first compound 1 µM) 6.11% | viability, T/C (second compound 0.0949 µM, first compound 3.16 µM) 2.84% | viability, T/C (second compound 0.0949 µM, first compound 10 µM) 3.55% | viability, T/C (second compound 0.3 µM, first compound 0.0316 µM) 1.6% | viability, T/C (second compound 0.3 µM, first compound 0.1 µM) 1.7% | viability, T/C (second compound 0.3 µM, first compound 0.316 µM) 1.43% | viability, T/C (second compound 0.3 µM, first compound 1 µM) 1.44% | viability, T/C (second compound 0.3 µM, first compound 3.16 µM) 1.47% | viability, T/C (second compound 0.3 µM, first compound 10 µM) 1.38%
inactive: viability, T/C (second compound 0.003 µM, first compound 0.0316 µM) 93.9% | viability, T/C (second compound 0.003 µM, first compound 0.1 µM) 83.5% | viability, T/C (second compound 0.003 µM, first compound 0.316 µM) 76.7% | viability, T/C (second compound 0.003 µM, first compound 1 µM) 74.5% | viability, T/C (second compound 0.003 µM, first compound 3.16 µM) 47.7% | viability, T/C (second compound 0.003 µM, first compound 10 µM) 31.4% | viability, T/C (second compound 0.00949 µM, first compound 0.0316 µM) 76.2% | viability, T/C (second compound 0.00949 µM, first compound 0.1 µM) 60.4% | viability, T/C (second compound 0.00949 µM, first compound 0.316 µM) 72.9% | viability, T/C (second compound 0.00949 µM, first compound 1 µM) 63.8% | viability, T/C (second compound 0.00949 µM, first compound 3.16 µM) 53% | viability, T/C (second compound 0.00949 µM, first compound 10 µM) 25.5% | viability, T/C (second compound 0.03 µM, first compound 0.0316 µM) 39.5% | viability, T/C (second compound 0.03 µM, first compound 0.1 µM) 32.2% | viability, T/C (second compound 0.03 µM, first compound 0.316 µM) 36.2% | viability, T/C (second compound 0.03 µM, first compound 1 µM) 28.3% | viability, T/C (second compound 0.03 µM, first compound 3.16 µM) 20.5% | viability, T/C (second compound 0.03 µM, first compound 10 µM) 9.7%
5.44: pIC50 (second compound 0.00949 µM)

Cc1sc2c(c1C)C(c1ccc(Cl)cc1)=NC(CC(=O)Nc1ccc(O)cc1)c1nnc(C)n1-2 (stereo not given) + CC[C@@]1(O)C(=O)OCc2c1cc1n(c2=O)Cc2cc3c(CN(C)C)c(O)ccc3nc2-1
> 8.02: pIC50 (second compound 0.03 µM) | pIC50 (second compound 0.0949 µM) | pIC50 (second compound 0.3 µM)
inactive: viability, T/C (second compound 0.003 µM, first compound 0.00949 µM) 90.7% | viability, T/C (second compound 0.003 µM, first compound 0.03 µM) 67.6% | viability, T/C (second compound 0.003 µM, first compound 0.0949 µM) 35% | viability, T/C (second compound 0.00949 µM, first compound 0.00949 µM) 78.9% | viability, T/C (second compound 0.00949 µM, first compound 0.03 µM) 68.7% | viability, T/C (second compound 0.00949 µM, first compound 0.0949 µM) 30% | viability, T/C (second compound 0.03 µM, first compound 0.00949 µM) 36% | viability, T/C (second compound 0.03 µM, first compound 0.03 µM) 24.5% | viability, T/C (second compound 0.03 µM, first compound 0.0949 µM) 20.9%
7.28: pIC50 (second compound 0.00949 µM)
7.26: pIC50 (second compound 0.003 µM)
active: viability, T/C (second compound 0.003 µM, first compound 0.3 µM) 7.09% | viability, T/C (second compound 0.003 µM, first compound 0.949 µM) 2.44% | viability, T/C (second compound 0.003 µM, first compound 3 µM) 1.89% | viability, T/C (second compound 0.00949 µM, first compound 0.3 µM) 9.43% | viability, T/C (second compound 0.00949 µM, first compound 0.949 µM) 2.81% | viability, T/C (second compound 0.00949 µM, first compound 3 µM) 2.08% | viability, T/C (second compound 0.03 µM, first compound 0.3 µM) 8.2% | viability, T/C (second compound 0.03 µM, first compound 0.949 µM) 2.92% | viability, T/C (second compound 0.03 µM, first compound 3 µM) 1.49% | viability, T/C (second compound 0.0949 µM, first compound 0.00949 µM) 6.49% | viability, T/C (second compound 0.0949 µM, first compound 0.03 µM) 7.18% | viability, T/C (second compound 0.0949 µM, first compound 0.0949 µM) 5.96% | viability, T/C (second compound 0.0949 µM, first compound 0.3 µM) 2% | viability, T/C (second compound 0.0949 µM, first compound 0.949 µM) 1.05% | viability, T/C (second compound 0.0949 µM, first compound 3 µM) 1.03% | viability, T/C (second compound 0.3 µM, first compound 0.00949 µM) 2.2% | viability, T/C (second compound 0.3 µM, first compound 0.03 µM) 1.82% | viability, T/C (second compound 0.3 µM, first compound 0.0949 µM) 1.38% | viability, T/C (second compound 0.3 µM, first compound 0.3 µM) 1.33% | viability, T/C (second compound 0.3 µM, first compound 0.949 µM) 0.79% | viability, T/C (second compound 0.3 µM, first compound 3 µM) 0.59%
